“Also recorded” adds a separate entry of the source. No end group written: not given here. *: point of attachment. NOTA = O=C(O)CN1CCN(CC(=O)O)CCN(CC(=O)*)CC1
Key:
MDA-MB-231 tumors = assay: In vivo PET imaging in mice xenografted with MDA-MB-231 breast tumors; conditions: NOG mice, MDA-MB-231 xenograft, intravenous, 30 min post tracer injection; FIG. 2
Experimental: All animal studies were carried out per regulations set forth and approved by the Johns Hopkins Animal Care and Use Committee at the Johns Hopkins Molecular Imaging Service Center. Female, 6-8 weeks old, immunodeficient (NOG) mice were inoculated with MDA-MB-231 (2 million) cells in 100 μL of Hank's balanced salt solution in the top mammary fat pad. Tumors averaging 200-300 mm^3 (typically 14 days after inoculation) were used for in vivo imaging and ex vivo biodistribution studies.
For PET imaging, mice were intravenously injected with 9-10 MBq (240-270 μCi) of the radiolabeled peptide in 200 μL of saline. Whole body PET imaging (2 beds; 15 min per bed) was carried out using a SEDCAL SuperArgus small animal PET/CT scanner 30 min post tracer injection. Following PET image acquisition, a CT scan (512 projections) was obtained on the same system for anatomical co-registration. PET data were reconstructed using the 3-dimensional ordered-subsets expectation maximization (3D-OSEM) algorithm and corrected for dead time and radioactive decay. Final data visualization and image generation was carried out using the Amira (FEI) software. Quantitative in vivo image analysis was done in AMIDE 1.0.5 (SourceForge) using ellipsoid region-of-interest volume integrations. Percentage of injected dose per cubic centimeter of tissue (% ID/cc) was calculated based on an external calibration factor obtained from a known quantity of radioactivity.

[1] = test system: human triple negative breast cancer cell line, MDA-MB-231; assay: Cellular uptake of 18F-labeled peptide with blocking by unlabeled peptide; format: cell-based; conditions: MDA-MB-231 cells, 74 KBq 18F-labeled peptide, 37° C., blocking with 10-fold non-radioactive peptide; FIG. 1
Experimental: Prepared peptides were first analyzed in vitro using the human triple negative breast cancer cell line, MDA-MB-231. In brief, cells were detached using non-enzymatic buffer and 0.5 million cells per tube will be incubated with 74 KBq (2 μCi) of ^18F-labeled peptide in 100 μL phosphate-buffered saline (PBS) at 37° C. Experiments were done in triplicate and repeated three times to ensure reproducibility. Blocking was carried out using a 10-fold molar equivalence of the corresponding non-radioactive peptide analogue. The integrity of the radiolabeled compounds and their extent of decomposition was analyzed by RP-HPLC.

| Substance | accumulation in breast tumors (PET) (MDA-MB-231 tumors) | tumor uptake on PET compared to Pep61 (MDA-MB-231 tumors) | cellular uptake [1] |
| --- | --- | --- | --- |
| A-D-K-P-D-M-G-E-I-A-S-F-D-K(NOTA) (ADKPDMGEIASFDK(NOTA); also: 18F label) [Pep62, tested 18F-labeled] | clear accumulation in breast tumors; also recorded: Accumulation and visualization of both peptides in breast tumors | higher and more uniform uptake compared to Pep61 | taken up by MDA-MB-231 cells in a specific manner |
| A-D-K(NOTA)-P-D-M-G-E-I-A-S-F-D-K (ADK(NOTA)PDMGEIASFDK; also: 18F label) [Pep61, tested 18F-labeled] | clear accumulation in breast tumors; also recorded: Accumulation and visualization of both peptides in breast tumors |  | taken up by MDA-MB-231 cells in a specific manner |
